Assay results taken from patent publication US11542274B1, “Therapeutic compounds and methods of use thereof” (AGENCY FOR SCIENCE, TECHNOLOGY AND RESEARCH (A*STAR), priority 2019, dated 2023).

Legend:
BRD4 = BRD4 (Homo sapiens (Human), UniProt O60885); test: Western blot analysis of BRD4 degradation in RAMOS cells; type: cell-based
Procedure: Ramos (ATCC, CRL-1596) cells cultured in Roswell Park Memorial Institute (RPMI) 1640 Medium supplemented with 10% Fetal bovine serum and 1% Penicillin-streptomycin at 37° C. in humidified atmosphere with 5% CO2. In 6-well plate, 1.2 million cells were treated with indicated PROTAC compounds at 0.1% final concentration (v/v) of DMSO for desired duration of time. Pelleted cells were lysed in RIPA buffer (1% Nonidet P-40, 0.5% sodium deoxycholate, 0.1% SDS in 1× Tris-buffered saline) supplemented with protease inhibitor cocktail, 0.5 U/μL Benzonase (Novagen) and 1 mM MgCl2. Lysates were incubated on ice for 10 minutes followed by 15 minutes' centrifugation at 15000×g at 4° C. Supernatant was collected and subjected to Bradford protein quantification assay. Heat-denatured lysates (50 μg total protein) were loaded on NuPAGE 3-8% Tris-Acetate SDS protein gels. Proteins were transferred to PVDF membrane using iBlot 2 Dry Blotting Device (Thermo Fisher Scientific) at 20V for 13 minutes. Membranes were processed using iBind Flex Western Device (Thermo Fisher Scientific) by following the manufacturer's guideline. Membranes were probed with anti-BRD4 (Cell Signaling, Cat. #13440S), anti-c-Myc (Cell Signaling, Cat. #5605S), anti-β-actin (Proteintech, Cat. #66009-1-lg) antibodies, and developed with anti-Rabbit IgG, HRP-linked F(ab′)2 fragment (from donkey) (GE Life Sciences, Cat. #NA-9340) or anti-mouse IgG, AP-linked Antibody (Cell Signaling Technologies, Cat. #7056S) secondary antibodies. Membranes were incubated with Amersham ECL Select Western Blotting Detection Reagent (GE life sciences, Cat. #RPN2235) and Immun-Star™ AP Chemiluminescence Kits (Biorad, Cat. #1705018), visualized under FluorChem system (Protein Simple).
The protocol was run at 4 different inhibitor concentrations: 5 μM, 1 μM, 0.3 μM, 0.1 μM, using neat DMSO as the negative control. The % BRD4 degradation in western blot analysis is graded as follows: • K: Protein degradation >70% • L: 40%≤protein degradation<70% • M: protein degradation<40%

[1] = tested on: RAMOS cells (Burkitt's lymphoma cell line); test: Anti-proliferation assay (CellTiter-Glo); type: cell-based; settings: Homo sapiens, 72 h, 3 days
Procedure: In cell growth experiments, cells were seeded in 96-well cell culture plates at a density of 3000 of RAMOS cells/well in 100 μL of culture medium. 100 μL of the diluted solution containing the tested compound was added to the appropriate wells of the cell plate. After addition of the tested compound, the cells were incubated at 37° C. in an atmosphere of 5% CO2 for 3 days. CellTiter-Glo (CTG) reagent from the Promega CellTiter-Glo Luminescent Cell Viability Assay kit (#G7572) was added into an OptiPlate 96 (Perkin Elmer, White, Opaque, #6005299) in the dark, incubated for at least 2 hrs, and luminescence signal was read using Tecan Safire II Multi-Mode Plate Reader. The GI50 was calculated by nonlinear regression analysis using GraphPad Prism5 software.
GI50 is the concentration for 50% of maximal inhibition of cell proliferation.

`Cc1cc(NCCOCCOCCOCCOc2ccc(NC(=O)C[C@@H]3N=C(c4ccc(Cl)cc4)c4c(sc(C)c4C)-n4c(C)nnc43)cc2)ncc1-c1cnc2c(c1)CC(=O)N2` [Compound 156, (S)-2-(4-(4-chlorophenyl)-2,3,9-trimethyl-6H-thieno[3,2-f][1,2,4]triazolo[4,3-a][1,4]diazepin-6-yl)-N-(4-(2-(2-(2-(2-((4-methyl-5-(2-oxo-2,3-dihydro-1H-pyrrolo[2,3-b]pyridin-5-yl)pyridin-2-yl)amino)ethoxy)ethoxy)ethoxy)ethoxy)phenyl)acetamide] was tested, and the “% BRD4 degradation” value (BRD4; 0.1 μM) was “M (protein degradation<40%)”, the “% BRD4 degradation” value (BRD4; 0.3 μM) was “M (protein degradation<40%)” and the “% BRD4 degradation” value (BRD4; 1 μM) was “L (40%≤protein degradation<70%)”. For the same compound, the “% BRD4 degradation” value (BRD4; 5 μM) was “K (Protein degradation >70%)”.

`Cc1sc2c(c1C)C(c1ccc(Cl)cc1)=N[C@@H](CC(=O)N1CCC(N3CCN(c4ccc(-c5ccc6c(c5)CC(=O)N6)cn4)CC3)CC1)c1nnc(C)n1-2` [Compound 123, (S)-5-(6-(4-(1-(2-(4-(4-chlorophenyl)-2,3,9-trimethyl-6H-thieno[3,2-f][1,2,4]triazolo[4,3-a][1,4]diazepin-6-yl)acetyl)piperidin-4-yl)piperazin-1-yl)pyridin-3-yl)indolin-2-one] gave a GI50 [1] of 0.001 to 0.1 µM.

Compound `Cc1sc2c(c1C)C(c1ccc(Cl)cc1)=N[C@@H](CC(=O)NCCOCCC(=O)N1CCN(c3ccc(-c4ccc5c(c4)CC(=O)N5)cn3)CC1)c1nnc(C)n1-2` [Compound 130, (S)-2-(4-(4-chlorophenyl)-2,3,9-trimethyl-6H-thieno[3,2-f][1,2,4]triazolo[4,3-a][1,4]diazepin-6-yl)-N-(2-(3-oxo-3-(4-(5-(2-oxoindolin-5-yl)pyridin-2-yl)piperazin-1-yl)propoxy)ethyl)acetamide] has a GI50 [1] of 0.001 to 0.1 µM.

With `Cc1sc2c(c1C)C(c1ccc(Cl)cc1)=N[C@@H](CC(=O)NC1CCN(c3ccc(-c4ccc5c(c4)CC(=O)N5)cn3)C1)c1nnc(C)n1-2` (stereo partly drawn) [Compound 129, 2-((S)-4-(4-chlorophenyl)-2,3,9-trimethyl-6H-thieno[3,2-f][1,2,4]triazolo[4,3-a][1,4]diazepin-6-yl)-N-(1-(5-(2-oxoindolin-5-yl)pyridin-2-yl)pyrrolidin-3-yl)acetamide] the GI50 [1] was 0.001 to 0.1 µM.

`Cc1sc2c(c1C)C(c1ccc(Cl)cc1)=N[C@@H](CC(=O)Nc1ccc(OCCOCCNc3ncccc3-c3ccc4c(c3)CC(=O)N4)cc1)c1nnc(C)n1-2` [Compound 140, (S)-2-(4-(4-chlorophenyl)-2,3,9-trimethyl-6H-thieno[3,2-f][1,2,4]triazolo[4,3-a][1,4]diazepin-6-yl)-N-(4-(2-(2-((3-(2-oxoindolin-5-yl)pyridin-2-yl)amino)ethoxy)ethoxy)phenyl)acetamide] showed a GI50 [1] of 0.1 to 1 µM.

`Cc1sc2c(c1C)C(c1ccc(Cl)cc1)=N[C@@H](CC(=O)NCCOCCOCCOCCNc1ncccc1-c1ccc3c(c1)NC(=O)C3)c1nnc(C)n1-2` [Compound 108, (S)-2-(4-(4-chlorophenyl)-2,3,9-trimethyl-6H-thieno[3,2-f][1,2,4]triazolo[4,3-a][1,4]diazepin-6-yl)-N-(2-(2-(2-(2-((3-(2-oxoindolin-6-yl)pyridin-2-yl)amino)ethoxy)ethoxy)ethoxy)ethyl)acetamide] was tested, and the GI50 [1] was 0.1 to 1 µM.

Compound `Cc1sc2c(c1C)C(c1ccc(Cl)cc1)=N[C@@H](CC(=O)NCCOCCOCCOCCNc1ccc(-c3ccc4c(c3)CC(=O)N4)cn1)c1nnc(C)n1-2` [Compound 099, (S)-2-(4-(4-chlorophenyl)-2,3,9-trimethyl-6H-thieno[3,2-f][1,2,4]triazolo[4,3-a][1,4]diazepin-6-yl)-N-(2-(2-(2-(2-((5-(2-oxoindolin-5-yl)pyridin-2-yl)amino)ethoxy)ethoxy)ethoxy)ethyl)acetamide] has a GI50 [1] of 0.001 to 0.1 µM.

`Cc1sc2c(c1C)C(c1ccc(Cl)cc1)=N[C@@H](CC(=O)NCCOCCOCCOCCOCCNc1ccc(-c3ccc4c(c3)CC(=O)N4)cn1)c1nnc(C)n1-2` [Compound 114, (S)-2-(4-(4-chlorophenyl)-2,3,9-trimethyl-6H-thieno[3,2-f][1,2,4]triazolo[4,3-a][1,4]diazepin-6-yl)-N-(14-((5-(2-oxoindolin-5-yl)pyridin-2-yl)amino)-3,6,9,12-tetraoxatetradecyl)acetamide] gave a GI50 [1] of 0.1 to 1 µM.

For `Cc1sc2c(c1C)C(c1ccc(Cl)cc1)=N[C@@H](CC(=O)NCCOCCNc1ccc(-c3ccc4c(c3)CC(=O)N4)cn1)c1nnc(C)n1-2` [Compound 117, (S)-2-(4-(4-chlorophenyl)-2,3,9-trimethyl-6H-thieno[3,2-f][1,2,4]triazolo[4,3-a][1,4]diazepin-6-yl)-N-(2-(2-((5-(2-oxoindolin-5-yl)pyridin-2-yl)amino)ethoxy)ethyl)acetamide], the GI50 [1] was 0.001 to 0.1 µM.

For `Cc1sc2c(c1C)C(c1ccc(Cl)cc1)=N[C@@H](CC(=O)NCCOCCOCCOCCC(=O)NC1CCCN(C(=O)c3ccc4c(c3)NC(=O)C4)C1)c1nnc(C)n1-2` (stereo partly drawn) [Compound 111, 3-(2-(2-(2-(2-((S)-4-(4-chlorophenyl)-2,3,9-trimethyl-6H-thieno[3,2-f][1,2,4]triazolo[4,3-a][1,4]diazepin-6-yl)acetamido)ethoxy)ethoxy)ethoxy)-N-(1-(2-oxoindoline-6-carbonyl)piperidin-3-yl)propanamide], the GI50 [1] was over 1 µM.

In the case of `Cc1sc2c(c1C)C(c1ccc(Cl)cc1)=N[C@@H](CC(=O)NCCNc1ccc(-c3ccc4c(c3)CC(=O)N4)cn1)c1nnc(C)n1-2` [Compound 124, (S)-2-(4-(4-chlorophenyl)-2,3,9-trimethyl-6H-thieno[3,2-f][1,2,4]triazolo[4,3-a][1,4]diazepin-6-yl)-N-(2-((5-(2-oxoindolin-5-yl)pyridin-2-yl)amino)ethyl)acetamide], the GI50 [1] is reported as 0.001 to 0.1 µM.

With `Cc1sc2c(c1C)C(c1ccc(Cl)cc1)=N[C@@H](CC(=O)NCCCCCNc1ccc(-c3ccc4c(c3)CC(=O)N4)cn1)c1nnc(C)n1-2` [Compound 126, (S)-2-(4-(4-chlorophenyl)-2,3,9-trimethyl-6H-thieno[3,2-f][1,2,4]triazolo[4,3-a][1,4]diazepin-6-yl)-N-(5-((5-(2-oxoindolin-5-yl)pyridin-2-yl)amino)pentyl)acetamide] the GI50 [1] was 0.001 to 0.1 µM.

`Cc1sc2c(c1C)C(c1ccc(Cl)cc1)=N[C@@H](CC(=O)N1CCC3(CCN(c4ncccc4-c4ccc5c(c4)CC(=O)N5)C3)C1)c1nnc(C)n1-2` (stereo partly shown) [Compound 137] was tested, and the GI50 [1] was 0.1 to 1 µM.

In the case of `Cc1sc2c(c1C)C(c1ccc(Cl)cc1)=N[C@@H](CC(=O)NCCOCCOCCOCCC(=O)NC1CCN(C(=O)c3ccc4c(c3)NC(=O)C4)CC1)c1nnc(C)n1-2` [Compound 110, (S)-3-(2-(2-(2-(2-(4-(4-chlorophenyl)-2,3,9-trimethyl-6H-thieno[3,2-f][1,2,4]triazolo[4,3-a][1,4]diazepin-6-yl)acetamido)ethoxy)ethoxy)ethoxy)-N-(1-(2-oxoindoline-6-carbonyl)piperidin-4-yl)propanamide], the GI50 [1] is reported as over 1 µM.

`Cc1sc2c(c1C)C(c1ccc(Cl)cc1)=N[C@@H](CC(=O)NC1CC3(C1)CC(Nc1ncccc1-c1ccc4c(c1)CC(=O)N4)C3)c1nnc(C)n1-2` (stereo partly drawn) [Compound 138, (S)-2-(4-(4-chlorophenyl)-2,3,9-trimethyl-6H-thieno[3,2-f][1,2,4]triazolo[4,3-a][1,4]diazepin-6-yl)-N-(6-((3-(2-oxoindolin-5-yl)pyridin-2-yl)amino)spiro[3.3]heptan-2-yl)acetamide] gave a GI50 [1] of 0.001 to 0.1 µM.

Compound `Cc1sc2c(c1C)C(c1ccc(Cl)cc1)=N[C@@H](CC(=O)N1CCN(c3ccc(-c4ccc5c(c4)CC(=O)N5)cn3)CC1)c1nnc(C)n1-2` [Compound 119, (S)-5-(6-(4-(2-(4-(4-chlorophenyl)-2,3,9-trimethyl-6H-thieno[3,2-f][1,2,4]triazolo[4,3-a][1,4]diazepin-6-yl)acetyl)piperazin-1-yl)pyridin-3-yl)indolin-2-one] has a GI50 [1] of 0.1 to 1 µM.
